PubChem BioAssay (NCI)
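Compound exposure: 48 hours, 5 concentrations, 96-well plates. Abbreviation: GI50, concentration required for 50% inhibition of growth. At the TGI there is no net growth.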

What was measured:
Assay in all cases: NCI tumour cell line growth inhibition, 48 h
HS 578T breast = test system: HS 578T breast
NCI/ADR-RES ovarian = test system: NCI/ADR-RES ovarian
RXF 393 renal = test system: RXF 393 renal
HOP-92 NSCLC = test system: HOP-92 NSCLC
HCT-116 colon = test system: HCT-116 colon
SF-539 CNS = test system: SF-539 CNS
KM12 colon = test system: KM12 colon
NCI-H23 lung = test system: NCI-H23 lung
SF-268 CNS = test system: SF-268 CNS
MALME-3M melanoma = test system: MALME-3M melanoma
SNB-19 CNS = test system: SNB-19 CNS
IGROV1 ovarian = test system: IGROV1 ovarian
T-47D breast = test system: T-47D breast
MDA-MB-468 breast = test system: MDA-MB-468 breast
M14 melanoma = test system: M14 melanoma
HT29 colon = test system: HT29 colon
HCC-2998 colon = test system: HCC-2998 colon
SK-MEL-5 melanoma = test system: SK-MEL-5 melanoma
LOX IMVI melanoma = test system: LOX IMVI melanoma
NCI-H460 lung = test system: NCI-H460 lung
HCT-15 colon = test system: HCT-15 colon
NCI-H522 lung = test system: NCI-H522 lung
NCI-H226 lung = test system: NCI-H226 lung
HOP-62 NSCLC = test system: HOP-62 NSCLC
MOLT-4 leukemia = test system: MOLT-4 leukemia
HL-60(TB) leukemia = test system: HL-60(TB) leukemia
UACC-257 melanoma = test system: UACC-257 melanoma
U251 CNS = test system: U251 CNS
SR leukemia = test system: SR leukemia
PC-3 prostate = test system: PC-3 prostate
SK-MEL-28 melanoma = test system: SK-MEL-28 melanoma
SNB-75 CNS = test system: SNB-75 CNS
A498 renal = test system: A498 renal
OVCAR-3 ovarian = test system: OVCAR-3 ovarian
RPMI-8226 leukemia = test system: RPMI-8226 leukemia
EKVX NSCLC = test system: EKVX NSCLC
UO-31 renal = test system: UO-31 renal
K-562 leukemia = test system: K-562 leukemia
DU-145 prostate = test system: DU-145 prostate
A549 NSCLC = test system: A549 NSCLC
CAKI-1 renal = test system: CAKI-1 renal
CCRF-CEM leukemia = test system: CCRF-CEM leukemia
ACHN renal = test system: ACHN renal
OVCAR-5 ovarian = test system: OVCAR-5 ovarian
OVCAR-4 ovarian = test system: OVCAR-4 ovarian
SN12C renal = test system: SN12C renal
MDA-MB-231 breast = test system: MDA-MB-231 breast
OVCAR-8 ovarian = test system: OVCAR-8 ovarian
SF-295 CNS = test system: SF-295 CNS
UACC-62 melanoma = test system: UACC-62 melanoma
MCF7 breast = test system: MCF7 breast
COLO 205 colon = test system: COLO 205 colon
SK-OV-3 ovarian = test system: SK-OV-3 ovarian
MDA-MB-435 = test system: MDA-MB-435
SK-MEL-2 melanoma = test system: SK-MEL-2 melanoma
TK-10 renal = test system: TK-10 renal
SW-620 colon = test system: SW-620 colon

COc1ccc(-c2nc3ccc(-c4nnc(SCC(=O)Nc5ccc(/C(C)=N\O)cc5)o4)cc3[nH]2)cc1
GI50 (HS 578T breast): 2.75 µM
TGI (HS 578T breast): 8.15 µM
GI50 (NCI/ADR-RES ovarian): > 100 µM
TGI (NCI/ADR-RES ovarian): > 100 µM
GI50 (RXF 393 renal): 2.03 µM
TGI (RXF 393 renal): 5.18 µM
GI50 (HOP-92 NSCLC): 4.14 µM
TGI (HOP-92 NSCLC): 19.7 µM
GI50 (HCT-116 colon): 3.31 µM
TGI (HCT-116 colon): > 100 µM
GI50 (SF-539 CNS): 2.15 µM
TGI (SF-539 CNS): 6.35 µM
GI50 (KM12 colon): 10.8 µM
TGI (KM12 colon): > 100 µM
GI50 (NCI-H23 lung): 11 µM
TGI (NCI-H23 lung): 33.9 µM
GI50 (SF-268 CNS): 4.38 µM
TGI (SF-268 CNS): 23.1 µM
GI50 (MALME-3M melanoma): 1.69 µM
TGI (MALME-3M melanoma): 3.95 µM
GI50 (SNB-19 CNS): 13.1 µM
TGI (SNB-19 CNS): 28.3 µM
GI50 (IGROV1 ovarian): 12 µM
TGI (IGROV1 ovarian): 24.3 µM
GI50 (T-47D breast): 10 µM
TGI (T-47D breast): 34.8 µM
GI50 (MDA-MB-468 breast): 6.35 µM
TGI (MDA-MB-468 breast): 19.3 µM
GI50 (M14 melanoma): 3.05 µM
TGI (M14 melanoma): > 100 µM
GI50 (HT29 colon): 13.8 µM
TGI (HT29 colon): 35.6 µM
GI50 (HCC-2998 colon): 50.8 µM
TGI (HCC-2998 colon): > 100 µM
GI50 (SK-MEL-5 melanoma): 1.68 µM
TGI (SK-MEL-5 melanoma): 3.66 µM
GI50 (LOX IMVI melanoma): 5.69 µM
TGI (LOX IMVI melanoma): 19.4 µM
GI50 (NCI-H460 lung): 15 µM
TGI (NCI-H460 lung): 53 µM
GI50 (HCT-15 colon): > 100 µM
TGI (HCT-15 colon): > 100 µM
GI50 (NCI-H522 lung): 6.37 µM
TGI (NCI-H522 lung): 23 µM
GI50 (NCI-H226 lung): 11.7 µM
TGI (NCI-H226 lung): 33.2 µM
GI50 (HOP-62 NSCLC): 22.9 µM
TGI (HOP-62 NSCLC): > 100 µM
GI50 (MOLT-4 leukemia): 9.01 µM
TGI (MOLT-4 leukemia): > 100 µM
GI50 (HL-60(TB) leukemia): 19.5 µM
TGI (HL-60(TB) leukemia): > 100 µM
GI50 (UACC-257 melanoma): 4.31 µM
TGI (UACC-257 melanoma): 17.2 µM
GI50 (U251 CNS): 4.3 µM
TGI (U251 CNS): 20.4 µM
GI50 (SR leukemia): > 100 µM
TGI (SR leukemia): > 100 µM
GI50 (PC-3 prostate): 3.05 µM
TGI (PC-3 prostate): 10.8 µM
GI50 (SK-MEL-28 melanoma): 2.05 µM
TGI (SK-MEL-28 melanoma): 4.03 µM
GI50 (SNB-75 CNS): 2.8 µM
TGI (SNB-75 CNS): 14.9 µM
GI50 (A498 renal): 22.7 µM
TGI (A498 renal): 37.2 µM
GI50 (OVCAR-3 ovarian): 12.7 µM
TGI (OVCAR-3 ovarian): 38.1 µM
GI50 (RPMI-8226 leukemia): 4 µM
TGI (RPMI-8226 leukemia): > 100 µM
GI50 (EKVX NSCLC): 17.1 µM
TGI (EKVX NSCLC): 48.8 µM
GI50 (UO-31 renal): 33.5 µM
TGI (UO-31 renal): > 100 µM
GI50 (K-562 leukemia): 3.68 µM
TGI (K-562 leukemia): > 100 µM
GI50 (DU-145 prostate): 14.8 µM
TGI (DU-145 prostate): 31.8 µM
GI50 (A549 NSCLC): 14.1 µM
TGI (A549 NSCLC): 35.6 µM
GI50 (CAKI-1 renal): 5.93 µM
TGI (CAKI-1 renal): 25 µM
GI50 (CCRF-CEM leukemia): 7.22 µM
TGI (CCRF-CEM leukemia): > 100 µM
GI50 (ACHN renal): 13 µM
TGI (ACHN renal): 35.2 µM
GI50 (OVCAR-5 ovarian): 19.9 µM
TGI (OVCAR-5 ovarian): 41 µM
GI50 (OVCAR-4 ovarian): 20.9 µM
TGI (OVCAR-4 ovarian): 91.7 µM
GI50 (SN12C renal): 11.6 µM
TGI (SN12C renal): 28 µM
GI50 (MDA-MB-231 breast): 3.83 µM
TGI (MDA-MB-231 breast): 13.4 µM
GI50 (OVCAR-8 ovarian): 7.7 µM
TGI (OVCAR-8 ovarian): 44.6 µM
GI50 (SF-295 CNS): 14.2 µM
TGI (SF-295 CNS): 32.8 µM
GI50 (UACC-62 melanoma): 3.2 µM
TGI (UACC-62 melanoma): 12 µM
GI50 (MCF7 breast): 8.61 µM
TGI (MCF7 breast): 30.9 µM
GI50 (COLO 205 colon): 26.2 µM
TGI (COLO 205 colon): > 100 µM
GI50 (SK-OV-3 ovarian): 12.2 µM
TGI (SK-OV-3 ovarian): 28.8 µM
GI50 (MDA-MB-435): 4 µM
TGI (MDA-MB-435): 18.1 µM
GI50 (SK-MEL-2 melanoma): 5.27 µM
TGI (SK-MEL-2 melanoma): 17.8 µM
GI50 (TK-10 renal): 19.8 µM
TGI (TK-10 renal): 37.5 µM
GI50 (SW-620 colon): 26.1 µM
TGI (SW-620 colon): 87.6 µM
